Reference: article PMC11591752, “Novel Inhibitory Actions of Neuroactive Steroid [3α,5α]-3-Hydroxypregnan-20-One on Toll-like Receptor 4-Dependent Neuroimmune Signaling” (Biomolecules, 2024)

Target: T1, MD-2 (Homo sapiens, UniProt Q9Y6Y9)
T1 construct: gene LY96; Recombinant human MD-2 (R&D Systems #1787-MD-050/CF), covalently immobilized
T1 sequence (Q9Y6Y9 19-160): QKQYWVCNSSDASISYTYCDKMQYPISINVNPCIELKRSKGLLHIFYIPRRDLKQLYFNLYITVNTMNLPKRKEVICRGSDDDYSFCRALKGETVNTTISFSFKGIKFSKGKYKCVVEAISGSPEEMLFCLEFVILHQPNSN
Assay: SPR competition assay: inhibition of Lipid A binding to immobilized hMD-2

`CC(=O)[C@H]1CC[C@H]2[C@@H]3CC[C@H]4C[C@H](O)CC[C@]4(C)[C@H]3CC[C@]12C` [3α,5α-THP, (3α,5α)-3-hydroxypregnan-20-one] showed a Ki of 4.5 ± 1.7 nM.
